Reference: patent US20260248783A1 (ASCLETIS BIOSCIENCE CO., LTD., priority 2021, published 2026)

Target: T1, PD-1/PD-L1 (Homo sapiens, UniProt Q9NZQ7)
T1 construct: Recombinant human PD-L1 protein (19-238) with a Histag at the C-terminus; purchased AcroBiosystems PD1-H5229 (PD-L1); PD1-H5257 (PD-1)
Assay: PD-1/PD-L1 Homogeneous Time-Resolved Fluorescence (HTRF) Binding Assay
Details: PD-1/PD-L1 HTRF activity; 3 nM PD1, 10 nM PD-L1, 25° C.
Protocol: Example 107. PD-1/PD-L1 Homogeneous Time-Resolved Fluorescence (HTRF) Binding Assay
The assays were conducted in a standard black 384-well polystyrene plate with a final volume of 20 μL. Inhibitors were first serially diluted in DMSO and then added to the plate wells before the addition of other reaction components. The final concentration of DMSO in the assay was 1%. The assays were carried out at 25° C. in the PBS buffer (pH 7.4) with 0.05% Tween-20 and 0.1% BSA. Recombinant human PD-L1 protein (19-238) with a Histag at the C-terminus was purchased from AcroBiosystems (PD1-H5229). Recombinant human PD-1 protein (25-167) with Fe tag at the C-terminus was also purchased from AcroBiosystems (PD1-H5257). PD-L1 and PD-1 proteins were diluted in the assay buffer and 10 μL was added to the plate well. Plates were centrifuged and proteins were preincubated with inhibitors for 40 minutes. The incubation was followed by the addition of 10 μL of HTRF detection buffer supplemented with Europium cryptate-labeled anti-human IgG (PerkinElmer-AD0212) specific for Fe and anti-His antibody conjugated to SureLight®—Allophycocyanin (APC, PerkinElmer-AD0059H). After centrifugation, the plate was incubated at 25° C. for 60 min. before reading on a PHERAstar FS plate reader (665 nm/620 nm ratio). Final concentrations in the assay were […], 10 nM PD-L1, 1 nM europium anti-human IgG and 20 nM anti-His-Allophycocyanin. IC50 determination was performed by fitting the curve of percent control activity versus the log of the inhibitor concentration.

T1 sequence (Q9NZQ7 19-238): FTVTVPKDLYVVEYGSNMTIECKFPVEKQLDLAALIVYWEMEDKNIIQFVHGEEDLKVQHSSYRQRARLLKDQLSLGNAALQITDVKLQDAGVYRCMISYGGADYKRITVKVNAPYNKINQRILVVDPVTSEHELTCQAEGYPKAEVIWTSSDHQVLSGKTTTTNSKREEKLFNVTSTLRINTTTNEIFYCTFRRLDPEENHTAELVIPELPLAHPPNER

IC50 [nM]	Molecule
10 to 100	Cc1cn2cc(-c3cccc(-c4cccc(-c5cc6c(=O)n(CCN[C@@H](CCO)C(=O)O)c(C)cn6c5)c4Cl)c3Cl)cc2c(=O)n1CCN[C@@H](CCO)C(=O)O [Compound 58, (2S,2'S)-2,2′-((((2,2′-dichloro-[1,1′-biphenyl]-3,3′-diyl)bis(3-methyl-1-oxopyrrolo[1,2-a]pyrazine-7,2(1H)-diyl))bis(ethane-2,1-diyl))bis(azanediyl))bis(4-hydroxybutanoic acid)]
10 to 100	O=C1CC[C@@H](Cn2c(C3CC3)nn3cc(-c4cccc(-c5cccc(-c6cc7c(=O)n(C[C@@H]8CCC(=O)N8)c(C8CC8)nn7c6)c5Cl)c4Cl)cc3c2=O)N1 [Compound 34, 6,6′-(2,2′-dichloro-[1,1′-biphenyl]-3,3′-diyl)bis(2-cyclopropyl-3-(((S)-5-oxopyrrolidin-2-yl)methyl)pyrrolo[2,1-f][1,2,4]triazin-4(3H)-one)]
10 to 100	CCc1cn2nc(-c3cccc(-c4cccc(-c5cc6c(=O)n(C[C@@H]7CCC(=O)N7)c(CC)cn6n5)c4Cl)c3Cl)cc2c(=O)n1C[C@@H]1CCC(=O)N1 [Compound 33, 2,2′-(2,2′-dichloro-[1,1′-biphenyl]-3,3′-diyl)bis(6-ethyl-5-(((S)-5-oxopyrrolidin-2-yl)methyl)pyrazolo[1,5-a]pyrazin-4(5H)-one)]
10 to 100	Cc1cn2cc(-c3cccc(-c4cccc(-c5cc6c(=O)n(C[C@@H]7CCCN7)c(C)cn6c5)c4Cl)c3Cl)cc2c(=O)n1C[C@@H]1CCCN1 [Compound 38, 7,7′-(2,2′-dichloro-[1,1′-biphenyl]-3,3′-diyl)bis(3-methyl-2-(((S)-pyrrolidin-2-yl)methyl)pyrrolo[1,2-a]pyrazin-1(2H)-one)]
< 10	Cn1c(CCN[C@@H](CO)C(=O)O)cn2nc(-c3cccc(-c4cccc(-c5cc6c(=O)n(C)c(CCN[C@@H](CO)C(=O)O)cn6n5)c4Cl)c3Cl)cc2c1=O [Compound 71, (2S,2'S)-2,2′-((((2,2′-dichloro-[1,1′-biphenyl]-3,3′-diyl)bis(5-methyl-4-oxo-4,5-dihydropyrazolo[1,5-a]pyrazine-2,6-diyl))bis(ethane-2,1-diyl))bis(azanediyl))bis(3-hydroxypropanoic acid)]
10 to 100	O=C1CC(Cn2cnn3cc(-c4cccc(-c5cccc(-c6cc7c(=O)n(CC8CNC(=O)C8)cnn7c6)c5Cl)c4Cl)cc3c2=O)CN1 (stereo not drawn) [Compound 18, 6,6′-(2,2′-dichloro-[1,1′-biphenyl]-3,3′-diyl)bis(3-((5-oxopyrrolidin-3-yl)methyl)pyrrolo[2,1-f][1,2,4]triazin-4(3H)-one)]
≥ 100	O=C1NCCN1CCn1cnn2cc(-c3cccc(-c4cccc(-c5cc6c(=O)n(CCN7CCNC7=O)cnn6c5)c4Cl)c3Cl)cc2c1=O [Compound 19, 6,6′-(2,2′-dichloro-[1,1′-biphenyl]-3,3′-diyl)bis(3-(2-(2-oxoimidazolidin-1-yl)ethyl)pyrrolo[2,1-f][1,2,4]triazin-4(3H)-one)]
≥ 100	Cc1cn2cc(-c3cccc(-c4cccc(-c5cc6c(=O)n(CCNCC(O)CC(=O)O)c(C)cn6c5)c4Cl)c3Cl)cc2c(=O)n1CCNCC(O)CC(=O)O (stereo not drawn) [Compound 56, 4,4′-((((2,2′-dichloro-[1,1′-biphenyl]-3,3′-diyl)bis(3-methyl-1-oxopyrrolo[1,2-a]pyrazine-7,2(1H)-diyl))bis(ethane-2,1-diyl))bis(azanediyl))bis(3-hydroxybutanoic acid)]
≥ 100	Cc1cn2nc(-c3cccc(-c4cccc(-c5cc6c(=O)n(CCN7CCOCC7C(=O)O)c(C)cn6n5)c4Cl)c3Cl)cc2c(=O)n1CCN1CCOCC1C(=O)O (stereo not drawn) [Compound 86, 4,4′-(((2,2′-dichloro-[1,1′-biphenyl]-3,3′-diyl)bis(6-methyl-4-oxopyrazolo[1,5-a]pyrazine-2,5(4H)-diyl))bis(ethane-2,1-diyl))bis(morpholine-3-carboxylic acid)]
< 10	Cc1cn2nc(-c3cccc(-c4cccc(-c5cc6c(=O)n(CCN[C@]7(C(=O)O)C[C@H](O)C7)c(C)cn6n5)c4Cl)c3Cl)cc2c(=O)n1CCN[C@]1(C(=O)O)C[C@H](O)C1 [Compound 102, (1S,1'S,3S,3'S)-1,1′-((((2,2′-dichloro-[1,1′-biphenyl]-3,3′-diyl)bis(6-methyl-4-oxopyrazolo[1,5-a]pyrazine-2,5(4H)-diyl))bis(ethane-2,1-diyl))bis(azanediyl)) bis(3-hydroxycyclobutane-1-carboxylic acid)]
10 to 100	Cc1cn2cc(-c3cccc(-c4cccc(-c5cc6c(=O)n(CCN7CC[C@H](O)C7)c(C)cn6c5)c4Cl)c3Cl)cc2c(=O)n1CCN1CC[C@H](O)C1 [Compound 48, 7,7′-(2,2′-dichloro-[1,1′-biphenyl]-3,3′-diyl)bis(2-(2-((S)-3-hydroxypyrrolidin-1-yl)ethyl)-3-methylpyrrolo[1,2-a]pyrazin-1(2H)-one)]
< 10	CC(=O)NCCNCCn1c(C)cn2cc(-c3cccc(-c4cccc(-c5cc6c(=O)n(CCNCCNC(C)=O)c(C)cn6c5)c4Cl)c3Cl)cc2c1=O [Compound 54, N,N′-(((((2,2′-dichloro-[1,1′-biphenyl]-3,3′-diyl)bis(3-methyl-1-oxopyrrolo[1,2-a]pyrazine-7,2(1H)-diyl))bis(ethane-2,1-diyl))bis(azanediyl))bis(ethane-2,1-diyl))diacetamide]
< 10	O=C1CC[C@@H](Cn2ccn3nc(-c4cccc(-c5cccc(-c6nc7c(=O)n(C[C@@H]8CCC(=O)N8)ccn7n6)c5Cl)c4Cl)nc3c2=O)N1 [Compound 15, 2,2′-(2,2′-dichloro-[1,1′-biphenyl]-3,3′-diyl)bis(7-(((S)-5-oxopyrrolidin-2-yl)methyl)-[1,24]triazolo[1,5-a]pyrazin-8(7H)-one)]
≥ 100	O=C1CC[C@@H](CN2CCn3cc(-c4cccc(-c5cccc(-c6cc7n(c6)CCN(C[C@@H]6CCC(=O)N6)C7=O)c5Cl)c4Cl)cc3C2=O)N1 [Compound 9, 7,7′-(2,2′-dichloro-[1,1′-biphenyl]-3,3′-diyl)bis(2-(((S)-5-oxopyrrolidin-2-yl)methyl)-3,4-dihydropyrrolo[1,2-a]pyrazin-1(2H)-one)]
< 10	Cc1cn2cc(-c3cccc(-c4cccc(-c5cc6c(=O)n(C[C@@H]7CCC(=O)N7)c(C)cn6c5)c4Cl)c3Cl)cc2c(=O)n1C[C@@H]1CCC(=O)N1 [Compound 30, 7,7′-(2,2′-dichloro-[1,1′-biphenyl]-3,3′-diyl)bis(3-methyl-2-(((S)-5-oxopyrrolidin-2-yl)methyl)pyrrolo[1,2-a]pyrazin-1(2H)-one)]
10 to 100	Cc1cn2nc(-c3cccc(-c4cccc(-c5cc6c(=O)n(CCCN[C@@H](CO)C(=O)O)c(C)cn6n5)c4Cl)c3Cl)cc2c(=O)n1CCCN[C@@H](CO)C(=O)O [Compound 70, (2S,2'S)-2,2′-((((2,2′-dichloro-[1,1′-biphenyl]-3,3′-diyl)bis(6-methyl-4-oxopyrazolo[1,5-a]pyrazine-2,5(4H)-diyl))bis(propane-3,1-diyl))bis(azanediyl))bis(3-hydroxypropanoic acid)]
< 10	O=C1CCC(Cn2cnn3c(F)c(-c4cccc(-c5cccc(-c6cc7c(=O)n(CC8CCC(=O)N8)cnn7c6F)c5Cl)c4Cl)cc3c2=O)N1 (stereo not drawn) [Compound 3, 6,6′-(2,2′-dichloro-[1,1′-biphenyl]-3,3′-diyl)bis(7-fluoro-3-((5-oxopyrrolidin-2-yl)methyl)pyrrolo[2,1-f][1,2,4]triazin-4(3H)-one)]
10 to 100	O=C1CC[C@@H](Cn2c(C3CC3)cn3nc(-c4cccc(-c5cccc(-c6cc7c(=O)n(C[C@@H]8CCC(=O)N8)c(C8CC8)cn7n6)c5Cl)c4Cl)cc3c2=O)N1 [Compound 32, 2,2′-(2,2′-dichloro-[1,1′-biphenyl]-3,3′-diyl)bis(6-cyclopropyl-5-(((S)-5-oxopyrrolidin-2-yl)methyl)pyrazolo[1,5-a]pyrazin-4(5H)-one)]
≥ 100	O=c1c2cc(-c3cccc(-c4cccc(-c5cc6c(=O)n(CCn7cccn7)cnn6c5)c4Cl)c3Cl)cn2ncn1CCn1cccn1 [Compound 21, 6,6′-(2,2′-dichloro-[1,1′-biphenyl]-3,3′-diyl)bis(3-(2-(1H-pyrazol-1-yl)ethyl)pyrrolo[2,1-f][1,2,4]triazin-4(3H)-one)]
10 to 100	Cc1cn2nc(-c3cccc(-c4cccc(-c5cc6c(=O)n(CCN[C@H](C(=O)O)[C@@H](C)O)c(C)cn6n5)c4Cl)c3Cl)cc2c(=O)n1CCN[C@H](C(=O)O)[C@@H](C)O [Compound 60, (2S,2'S,3R,3′R)-2,2′-((((2,2′-dichloro-[1,1′-biphenyl]-3,3′-diyl)bis(6-methyl-4-oxopyrazolo[1,5-a]pyrazine-2,5(4H)-diyl))bis(ethane-2,1-diyl))bis(azanediyl)) bis(3-hydroxybutanoic acid)]

Molecule	IC50 [nM]
(2S,2'S,4R,4′R)-1,1′-(((2,2′-dichloro-[1,1′-biphenyl]-3,3′-diyl)bis(3-methyl-1-oxopyrrolo[1,2-a]pyrazine-7,2(1H)-diyl))bis(ethane-2,1-diyl))bis(4-hydroxypyrrolidine-2-carboxylic acid) [Compound 59]	≥ 100
